Source: patent publication US7163957B2, “3-(Cyclopenten-1-yl)-benzyl-or 3-(cyclopenten-1-yl)-heteroarylmethyl-amine derivatives and use thereof as medicines for treating schizophrenia” (Pierre Fabre Medicament, priority 2002, dated 2007)
Counter-ions that a name gives are not always drawn.

Assays:
[1] = target: D2 receptors (Homo sapiens, UniProt P14416); assay: Affinity for the D2 receptors, displacement of (3H) YM-09151-2; format: binding; conditions: for Ki: displacement of (3H) YM-09151-2, mean of at least 3 experiments, read-out: D2 pKi (converted)
Sequence of D2 receptors (Homo sapiens, UniProt P14416) (P14416 whole entry): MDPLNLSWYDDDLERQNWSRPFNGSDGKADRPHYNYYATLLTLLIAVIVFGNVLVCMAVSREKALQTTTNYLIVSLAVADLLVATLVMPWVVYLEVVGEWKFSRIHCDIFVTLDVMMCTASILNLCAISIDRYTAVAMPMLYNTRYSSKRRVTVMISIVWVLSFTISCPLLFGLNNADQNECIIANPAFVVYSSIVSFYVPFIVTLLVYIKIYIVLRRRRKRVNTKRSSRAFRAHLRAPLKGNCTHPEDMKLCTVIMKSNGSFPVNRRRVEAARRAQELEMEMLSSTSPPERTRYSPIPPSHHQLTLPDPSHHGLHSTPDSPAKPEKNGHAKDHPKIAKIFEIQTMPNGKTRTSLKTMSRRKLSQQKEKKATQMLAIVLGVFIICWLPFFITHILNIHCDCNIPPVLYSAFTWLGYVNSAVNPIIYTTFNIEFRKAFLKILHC
From the text: 1—Measurement of the affinity of the compounds of the invention for the D2 receptors.
The pKi values, (pKi=−log Ki), are given in the form of the mean±SEM of at least 3 experiments.

[2] = target: T1, 5-HT1A receptors (Homo sapiens, UniProt P08908); assay: Affinity for the 5-HT1A receptors, displacement of [3H]8-OH-DPAT; format: binding; conditions: for Ki: displacement of [3H]8-OH-DPAT, mean of at least 3 experiments, read-out: 5-HT1A pKi (converted)
T1 sequence (P08908 1-422): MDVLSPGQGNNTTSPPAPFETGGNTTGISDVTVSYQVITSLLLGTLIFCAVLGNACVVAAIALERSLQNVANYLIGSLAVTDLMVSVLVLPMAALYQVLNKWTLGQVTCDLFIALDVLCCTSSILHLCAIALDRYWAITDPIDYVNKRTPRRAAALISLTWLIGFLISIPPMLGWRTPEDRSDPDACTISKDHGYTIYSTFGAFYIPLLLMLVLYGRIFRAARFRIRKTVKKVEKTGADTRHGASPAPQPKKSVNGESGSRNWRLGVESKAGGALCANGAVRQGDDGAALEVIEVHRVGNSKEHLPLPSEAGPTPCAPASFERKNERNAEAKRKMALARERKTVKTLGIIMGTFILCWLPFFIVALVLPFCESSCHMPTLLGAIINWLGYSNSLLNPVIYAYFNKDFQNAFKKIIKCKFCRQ
Procedure: 2—Measurement of the affinity of the compounds of the invention for the 5-HT1A receptors.
The affinity in vitro of the compounds of the invention for the receptors of the 5-HT1A subtype was determined by measuring the displacement of [^3H]8-OH-DPAT (TRK 850; 160-240 Ci/mmol).
The pKi values, (pKi =−log Ki), are given in the form of the mean±SEM of at least 3 experiments.

[3] = system: D2 receptors; assay: Antagonist activity of the D2 receptors in vivo: inhibition of the behavior induced by methylphenidate; conditions: Rattus norvegicus, rats, oral route, read-out: Normalization ED50
From the text: 3—Evaluation of the antagonist activity of the D2 receptors in vivo.

[4] = system: catalepsy; assay: Cataleptigenic effects (catalepsy); format: in vivo; conditions: rats; for ED50: rat, in vivo, oral route; for cataleptigenic effects (in words): high doses (i.e. 40 mg/kg)
From the text: 4—Evaluation of the cataleptigenic effects of the compounds of the invention.

melting point	affinity for the 5-HT1A receptors (in words) [2]	SMILES	ED50 [3]	ED50 [4]	also measured
146 °C		CC1(C)Cc2cccc(OCCNCc3cccc(C4=CCCC4)c3)c2O1 (as salt: fumarate) [Compound 1a, [2-(2,2-Dimethyl-2,3-dihydrobenzofuran-7-yloxy)ethyl]-(3-cyclopenten-1-ylbenzyl)amine]			
141 °C		CC1(C)Cc2cccc(OCCNCc3cncc(C4=CCCC4)c3)c2O1 (as salt: fumarate) [Compound 1b, [2-(2,2-Dimethyl-2,3-dihydrobenzofuran-7-yl-oxy)ethyl]-(5-cyclopenten-1-ylpyridin-3-ylmethyl)amine]			
126 °C		C1=C(c2cccc(CNCCOc3cccc4ccoc34)c2)CCC1 (as salt: fumarate) [Compound 1c, [2-(Benzofuran-7-yloxy)ethyl]-(3-cyclopenten-1-ylbenzyl)amine]			
133 °C		Cc1cc2cccc(OCCNCc3cccc(C4=CCCC4)c3)c2o1 (as salt: fumarate) [Compound 1d, [2-(2-Methylbenzofuran-7-yloxy)ethyl]-(3-cyclopenten-1-ylbenzyl)amine]			
118 °C		C1=C(c2cccc(CNCCOc3cccc4c3OCC4)c2)CCC1 (as salt: fumarate) [Compound 1e, [2-(2,3-Dihydrobenzofuran-7-yloxy)ethyl]-(3-cyclopenten-1-ylbenzyl)amine]			
145 °C		CC1(C)Cc2cccc(OCCNCc3cccc(C4=C(F)CCC4)c3)c2O1 (as salt: fumarate) [Compound 1g, [2-(2,2-Dimethyl-2,3-dihydrobenzofuran-7-yl-oxy)ethyl]-[3-(2-fluorocyclopenten-1-yl)benzyl]amine]			
180 °C		C1=C(c2cccc(CNCCOc3cccc4c3OC3(CC3)C4)c2)CCC1 (as salt: maleate) [Compound 1f]			
	high affinity	CC1(C)Cc2cccc(OCCNCc3cccc(C4=CCCC4)c3)c2O1 [Compound 1a, [2-(2,2-Dimethyl-2,3-dihydrobenzofuran-7-yloxy)ethyl]-(3-cyclopenten-1-ylbenzyl)amine]	1.3 mg/kg	> 40 mg/kg	Ki [1]: 0.316 nM; Ki [2]: 6.31 nM; cataleptigenic effects (in words) [4]: free of any cataleptigenic effects
	high affinity	C1=C(c2cccc(CNCCOc3cccc4c3OC3(CC3)C4)c2)CCC1 [Compound 1f]	0.63 mg/kg	> 40 mg/kg	Ki [1]: 0.631 nM; Ki [2]: 6.31 nM; cataleptigenic effects (in words) [4]: free of any cataleptigenic effects
	high affinity	CNc1cc(OC)c(C(=O)NC2CCN(Cc3ccccc3)C2C)cc1Cl (stereo not shown) [nemonapride, reference compound]	1.5 mg/kg	5 mg/kg	

SMILES	melting point	affinity for the 5-HT1A receptors (in words) [2]	ED50 [3]	ED50 [4]	also measured
Cc1nc2n(c(=O)c1CCN1CCC(c3noc4cc(F)ccc34)CC1)CCCC2 [Risperidone, risperidone, reference compound]		low affinity	6.5 mg/kg		affinity for the D2 receptors (in words) [1]: good affinity
O=C(CCCN1CCC(O)(c2ccc(Cl)cc2)CC1)c1ccc(F)cc1 [haloperidol, reference compound]		low affinity	0.46 mg/kg	0.92 mg/kg	
